Reference: the supplement of paper PMC7600603

Experiments:
DLD1 NRF2-WT [1] = conditions: 72 h; CellTiter-Glo viability
How it was run: (§1)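 In 384-well plates, library compounds were applied at 5 concentrations spanning a 10,000-fold range to isogenic DLD1 colorectal cancer cells, NRF2 wild-type or CRISPR gain-of-function, maintained in DMEM with 10% FBS. A Pherastar FS reader recorded CellTiter-Glo signal at 72 h, with normalisation to vehicle wells and 100-μM positive-control wells. Curves were fitted with a four-parameter logistic model. EC50 and drug sensitivity score, a normalised area under the curve, came from those curves.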

DLD1 NRF2-WT [2] = experiment: TC50 cytotoxicity; higher = less toxic; conditions: 72 h; CellTox Green cytotoxicity
How it was run: (§2)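 Isogenic DLD1 colorectal cancer cells differing in NRF2 status, one line edited by CRISPR, were cultured in DMEM with 10% FBS and treated in 384-well plates with library compounds at 5 concentrations spanning a 10,000-fold range. Plates were read after 72 h with CellTox Green on a Pherastar FS reader, and signals were normalised to vehicle wells and 100-μM positive-control wells. Cytotoxicity was summarised as TC50 and as a drug sensitivity score, a normalised area under the curve, both from logistic dose-response fits.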

DLD1 NRF2-GOF [3] = experiment: TC50 cytotoxicity; higher = less toxic; conditions: 72 h; CellTox Green cytotoxicity
How it was run: as §2

DLD1 NRF2-WT [4] = experiment: drug sensitivity score (DSS) cytotoxicity (DSS score); higher = more toxic; extreme values may be limits of the assay; conditions: 72 h; CellTox Green cytotoxicity
How it was run: as §2

DLD1 NRF2-GOF [5] = experiment: as above; conditions: 72 h; CellTox Green cytotoxicity
How it was run: as §2

DLD1 NRF2-WT [6] = experiment: drug sensitivity score (DSS) viability (DSS score); higher = more sensitive; extreme values may be limits of the assay; conditions: 72 h; CellTiter-Glo viability
How it was run: as §1

| SMILES | EC50 viability (DLD1 NRF2-WT [1]) [nM] | TC50 cytotoxicity (DLD1 NRF2-WT [2]) [nM] | TC50 cytotoxicity (DLD1 NRF2-GOF [3]) [nM] | drug sensitivity score (DLD1 NRF2-WT [4]) | drug sensitivity score (DLD1 NRF2-GOF [5]) | drug sensitivity score (DLD1 NRF2-WT [6]) |
| --- | --- | --- | --- | --- | --- | --- |
| CC(C)(C)c1cc(NC(=O)Nc2ccc(Oc3ccnc4[nH]c(=O)cnc34)cc2F)n(-c2ccccc2)n1 | 3110 | > 25000 | > 25000 | 1.1 | 0 | 9.8 |
| C[C@@H](Oc1cc(-n2cnc3ccc(CN4CCN(C)CC4)cc32)sc1C(N)=O)c1ccccc1C(F)(F)F | 3.3 | > 10000 | > 10000 | 2.4 | 8 | 33.6 |
| C[C@@H]1CN(CC(=O)Nc2ccc3c(c2)Cc2cccc(-c4cc(=O)cc(N5CCOCC5)o4)c2S3)C[C@H](C)O1 | > 25000 | > 25000 | > 25000 | 0 | 0 | 0 |
| C[C@H]1C[C@@H](n2c(Nc3ccc(OC(F)(F)F)cc3)nc3cc(CCC(=O)O)ccc32)CC(C)(C)C1 | > 10000 | > 10000 | > 10000 | 0 | 0 | 0.3 |
| Cc1cccc(CC(=O)N2CCc3c2ccc(-c2cn(C)c4ncnc(N)c24)c3F)n1 | 808 | > 2500 | > 2500 | 0 | 0 | 2.5 |
| N#Cc1ccc(COC[C@H]2O[C@@H](n3c(NCc4ccc(Cl)c(Cl)c4)nc4c(N)ncnc43)[C@H](O)[C@@H]2O)cc1 | – | > 10000 | > 10000 | 0 | 0 | 3.2 |
| O=C(Nc1ccc2[nH]nc(-c3ccncc3)c2c1)[C@@H]1CCN(CC(=O)N2CCN(c3ccc(-c4ncccn4)cc3)CC2)C1 | 688 | > 10000 | > 10000 | 0 | 0 | 6.6 |
| COc1cc(OC2CCN(C)CC2)ccc1Nc1ncc2c(n1)n(C1CCCC1)c(=O)n2C [AZ 3146] | 1250 | 1580 | > 10000 | 2.5 | 1.6 | 8 |
| O=C(Nc1cc(Oc2cc(F)c(NC(=O)C3(C(=O)Nc4ccc(F)cc4)CC3)cc2F)ccn1)C1CC1 [Altiratinib] | 3430 | > 10000 | > 10000 | 0.6 | 0.2 | 5.1 |
| CC(C)c1c(C(=O)Nc2ccccc2)c(-c2ccccc2)c(-c2ccc(F)cc2)n1CC[C@@H](O)C[C@@H](O)CC(=O)O [Atorvastatin] | 3740 | – | – | – | – | 2.5 |
| CC(=O)OC[C@H]1O[C@@H]([S-])[C@H](OC(C)=O)[C@@H](OC(C)=O)[C@@H]1OC(C)=O.CCP(CC)CC.[Au+] [Auranofin] | 622 | 818 | > 2500 | 2.3 | 0 | 5.5 |
| CNC(=O)c1ccccc1Sc1ccc2c(/C=C/c3ccccn3)n[nH]c2c1 [Axitinib] | 3390 | > 10000 | > 10000 | 0.3 | 0 | 2.4 |
| CC[C@@H]1C(=O)N(C)c2cnc(Nc3ccc(C(=O)NC4CCN(C)CC4)cc3OC)nc2N1C1CCCC1 [BI 2536] | 5.2 | 188 | – | 3.1 | 2.3 | 21.8 |
| COc1c(C)cnc(Cn2cnc3c(Cl)nc(N)nc32)c1C [BIIB021] | 149 | > 10000 | > 10000 | 0 | 0 | 20.6 |
| CC[C@H](NC(=O)[C@H](C)NC)C(=O)N1C[C@@H](O)C[C@H]1Cc1c(-c2[nH]c3cc(F)ccc3c2C[C@@H]2C[C@H](O)CN2C(=O)[C@H](CC)NC(=O)[C@H](C)NC)[nH]c2cc(F)ccc12 [Birinapant] | > 1000 | > 1000 | > 1000 | 0 | 0 | 0.1 |
| CC(C)C[C@H](NC(=O)[C@H](Cc1ccccc1)NC(=O)c1cnccn1)B(O)O [Bortezomib] | 5.8 | 5.7 | 11.7 | 27.2 | 23.1 | 27.1 |
| CC1=NN(c2ccc(C(=O)O)cc2)C(=O)C1=Cc1ccc(-c2cc(C)c(C)cc2[N+](=O)[O-])o1 [C646] | 5030 | > 25000 | > 25000 | 0 | 0 | 2.8 |
| COc1ccc(-c2nc(N3CCOCC3)c3sc(CN(C)c4ncc(C(=O)NO)cn4)cc3n2)cn1 [CUDC-907] | 33.4 | 105 | 509 | 14.6 | 6.9 | 29.8 |
| Nc1cc(F)ccc1NC(=O)c1ccc(CNC(=O)/C=C/c2cccnc2)cc1 [Chidamide] | > 10000 | > 10000 | > 10000 | 0 | 0 | 0.6 |
| O=C(c1ccc(F)c(F)c1Nc1ccc(I)cc1F)N1CC(O)([C@@H]2CCCCN2)C1 [Cobimetinib] | 207 | – | – | – | – | 3 |
